Biological target: human Nav 1.8 (Homo sapiens, UniProt Q9Y5Y9)
Test: E-VIPR assay detecting and measuring Nav inhibition properties
Assay type: cell-based
Settings: HEK cells expressing a truncated form of human Nav 1.8; compound numbers without "*" (not marked as run in the presence of human serum); read-out: measured IC50 value in the E-VIPR Assay
From the text: E-VIPR Assay Detecting and Measuring Nav Inhibition Properties
Sodium ion channels are voltage-dependent proteins that can be activated by inducing membrane voltage changes by applying electric fields. The electrical stimulation instrument and methods of use, referred to as E-VIPR, are described in International Publication No. WO 2002/008748 A3 and C.-J. Huang et al. Characterization of voltage-gated sodium channel blockers by electrical stimulation and fluorescence detection of membrane potential, 24 Nature Biotech. 439-46 (2006), both of which are incorporated by reference in their entirety. The instrument comprises a microtiter plate handler, an optical system for exciting the coumarin dye while simultaneously recording the coumarin and oxonol emissions, a waveform generator, a current- or voltage-controlled amplifier, and parallel electrode pairs that are inserted into assay plate wells. Under integrated computer control, this instrument passes user-programmed electrical stimulus protocols to cells within the wells of the microtiter plate.
16-20 hours prior to running the assay on E-VIPR, HEK cells expressing a truncated form of human Nav 1.8 with full channel activity were seeded into microtiter 384-well plates, pre-coated with matrigel, at a density of 25,000 cells per well. 2.5-5% KIR2.1 Bacmam virus was added to the final cell suspension before seeding into cell plates. HEK cells were grown in Dulbecco's Modified Eagle's Medium (DMEM) supplemented with 10% FBS (Fetal Bovine Serum, qualified; Sigma #F4135), 1% NEAA (Non-Essential Amino Acids, Gibco #11140), 1% HEPES (Gibco #15630), 1% Pen-Strep (Penicillin-Streptomycin; Gibco #15140) and 5 μg/ml Blasticidin (Gibco #R^210-01). Cells were expanded in vented cap cell culture flasks, with 90-95% humidity and 5% CO2.
100 mg/mL Pluronic F-127 (Sigma #P2443), in dry DMSO
Compound Plates: Corning 384-well Polypropylene Round Bottom #3656
Cell Plates: 384-well tissue culture treated plates (Greiner #781091-2B)
2.5-5% KIR 2.1 Bacmam virus (produced in-house), prepared as described in Section 3.3 of J. A. Fornwald et al., Gene Expression in Mammalian Cells Using BacMam, a Modified Baculovirus System, 1350 Methods in Molecular Biology 95-116 (2016), the entire contents of which are incorporated by reference. The concentration used can be dependent on viral titer of each batch.
5 mM DiSBAC6(3), a voltage sensitive oxonol acceptor (CAS number 169211-44-3; 5-[3-(1,3-dihexylhexahydro-4,6-dioxo-2-thioxo-5-pyrimidinyl)-2-propen-1-ylidene]-1,3-dihexyldihydro-2-thioxo-4,6 (1H,5H)-pyrimidinedione), in dry DMSO. The preparation of DiSBAC6(3) is analogous to that of DiSBAC4(3) as described in Voltage Sensing by Fluorescence Resonance Energy Transfer in Single Cells, Gonzalez, J. E. and Tsien, R. Y. (1995) Biophys. J. 69, 1272-1280.
5 mM CC2-DMPE, a commercially available membrane-bound coumarin phospholipid FRET donor (ThermoFisher Scientific catalog number K1017, CAS number 393782-57-5; tetradecanoic acid, 1,1′-[(1R)-1-[8-(6-chloro-7-hydroxy-2-oxo-2H-1-benzopyran-3-yl)-3-hydroxy-3-oxido-8-oxo-2,4-dioxa-7-aza-3-phosphaoct-1-yl]-1,2-ethanediyl] ester) was prepared in dry DMSO. See also, Improved indicators of cell membrane potential that use fluorescence resonance energy transfer, Gonzalez, J. E. and Tsien, R. Y. (1997) Chem. Biol. 4, 269-277.
Voltage Assay Background Suppression Compound (VABSC-1) is prepared in H2O (89-363 mM, range used to maintain solubility)
Human Serum (HS, Millipore #S1P1-01KL, or Sigma SLBR5469V and SLBR5470V as a 50%/50% mixture, for 25% assay final concentration)
• Sodium Chloride 160 mM (9.35 g/L), Potassium Chloride, 4.5 mM (0.335 g/L), Glucose 10 mM (1.8 g/L), Magnesium Chloride (Anhydrous) 1 mM (0.095 g/L), Calcium Chloride 2 mM (0.222 g/L), HEPES 10 mM (2.38 g/L) in water. […]

Chain of human Nav 1.8 (Q9Y5Y9 126-399 limits assumed): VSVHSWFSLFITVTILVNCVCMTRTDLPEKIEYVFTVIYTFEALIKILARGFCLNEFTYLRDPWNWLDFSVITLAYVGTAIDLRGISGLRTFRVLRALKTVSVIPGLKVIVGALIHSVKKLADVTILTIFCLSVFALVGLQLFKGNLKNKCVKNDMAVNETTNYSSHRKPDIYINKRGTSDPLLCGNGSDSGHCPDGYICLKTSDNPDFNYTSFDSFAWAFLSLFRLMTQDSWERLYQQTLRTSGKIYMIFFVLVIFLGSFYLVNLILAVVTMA
Chain of human Nav 1.8 (Q9Y5Y9 660-890 limits assumed): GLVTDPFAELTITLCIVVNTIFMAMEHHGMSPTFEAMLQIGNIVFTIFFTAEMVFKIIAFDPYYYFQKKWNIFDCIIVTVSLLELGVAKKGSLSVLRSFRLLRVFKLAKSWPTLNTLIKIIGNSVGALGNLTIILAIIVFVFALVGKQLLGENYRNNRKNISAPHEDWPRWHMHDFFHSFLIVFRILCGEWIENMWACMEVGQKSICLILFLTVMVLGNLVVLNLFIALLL
Chain of human Nav 1.8 (Q9Y5Y9 1148-1722 limits assumed): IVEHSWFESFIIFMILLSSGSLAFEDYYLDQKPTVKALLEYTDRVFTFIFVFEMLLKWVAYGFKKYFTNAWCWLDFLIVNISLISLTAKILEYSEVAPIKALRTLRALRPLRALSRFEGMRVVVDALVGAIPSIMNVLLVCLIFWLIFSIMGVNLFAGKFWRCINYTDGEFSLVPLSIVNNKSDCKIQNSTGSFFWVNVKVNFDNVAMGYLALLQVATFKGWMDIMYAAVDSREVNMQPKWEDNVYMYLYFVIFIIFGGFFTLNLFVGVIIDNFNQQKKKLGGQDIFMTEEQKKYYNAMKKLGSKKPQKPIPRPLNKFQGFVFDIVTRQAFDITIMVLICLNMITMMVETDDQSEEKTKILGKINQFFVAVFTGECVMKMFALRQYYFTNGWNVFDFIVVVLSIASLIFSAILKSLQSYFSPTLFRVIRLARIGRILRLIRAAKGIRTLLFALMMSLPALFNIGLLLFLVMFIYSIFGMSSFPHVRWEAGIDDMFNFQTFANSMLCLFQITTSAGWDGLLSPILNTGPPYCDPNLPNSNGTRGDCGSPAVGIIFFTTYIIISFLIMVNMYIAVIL

Compound | IC50
COc1c([C@H]2[C@H](C(=O)Nc3ccnc(C(=O)N4C5CNCC4C5)c3)O[C@@](C)(C(F)(F)F)[C@H]2C)ccc(F)c1F [Compound 237, (2R,3S,4S,5R)-N-(2-(3,6-diazabicyclo[3.1.1]heptane-6-carbonyl)pyridin-4-yl)-3-(3,4-difluoro-2-methoxyphenyl)-4,5-dimethyl-5-(trifluoromethyl)tetrahydrofuran-2-carboxamide] | 10 to 100 nM
C[C@H]1[C@@H](c2cccc(C(F)(F)F)c2O[C@H]2C[C@@H](O)C2)[C@H](C(=O)Nc2ccnc(C(N)=O)c2)O[C@@]1(C)C(F)(F)F [Compound 212, 4-((2R,3S,4S,5R)-3-(2-((1s,3R)-3-hydroxycyclobutoxy)-3-(trifluoromethyl)phenyl)-4,5-dimethyl-5-(trifluoromethyl)tetrahydrofuran-2-carboxamido) picolinamide] | < 10 nM
C[C@H]1[C@@H](c2ccc(F)c(F)c2OCC(=NO)C2CC2)[C@H](C(=O)Nc2ccnc(C(N)=O)c2)O[C@@]1(C)C(F)(F)F (single isomer, unassigned) [Compound 183, rel-4-((2R*,3S*,4S*,5R*)-3-(2-(2-cyclopropyl-2-(hydroxyimino)ethoxy)-3,4-difluorophenyl)-4,5-dimethyl-5-(trifluoromethyl)tetrahydrofuran-2-carboxamido) picolinamide] | < 10 nM
C[C@@H]1[C@H](c2ccc(F)c3c2CCC3(F)F)[C@@H](C(=O)Nc2ccnc(C(N)=O)c2)O[C@]1(C)C(F)(F)F (single isomer, unassigned) [Compound 148] | ≥ 1000 nM
COC1CC(Oc2c([C@H]3[C@H](C(=O)Nc4ccnc(C(N)=O)c4)O[C@@](C)(C(F)(F)F)[C@H]3C)ccc(F)c2F)C1 (stereo partly drawn) [Compound 162, 4-((2R,3S,4S,5R)-3-(3,4-difluoro-2-(3-methoxycyclobutoxy)phenyl)-4,5-dimethyl-5-(trifluoromethyl)tetrahydrofuran-2-carboxamido)picolinamide] | < 10 nM
C[C@H]1[C@@H](c2ccc(F)c(F)c2OC2CC(C#N)C2)[C@H](C(=O)Nc2ccnc(C(N)=O)c2)O[C@@]1(C)C(F)(F)F (stereo partly drawn) [Compound 80, 4-((2R,3S,4S,5R)-3-(2-(3-cyanocyclobutoxy)-3,4-difluorophenyl)-4,5-dimethyl-5-(trifluoromethyl)tetrahydrofuran-2-carboxamido)picolinamide] | < 10 nM
COC1(C)CN(CCOc2c([C@H]3[C@H](C(=O)Nc4ccnc(C(N)=O)c4)O[C@@](C)(C(F)(F)F)[C@H]3C)ccc(F)c2F)C1 [Compound 48, 4-((2R,3S,4S,5R)-3-(3,4-difluoro-2-(2-(3-methoxy-3-methylazetidin-1-yl)ethoxy)phenyl)-4,5-dimethyl-5-(trifluoromethyl)tetrahydrofuran-2-carboxamido)picolinamide] | 10 to 100 nM
COc1c([C@H]2[C@H](C(=O)Nc3ccnc(C(=O)N[C@H]4CNC[C@@H]4OC)c3)O[C@@](C)(C(F)(F)F)[C@H]2C)ccc(F)c1F [Compound 242, 4-((2R,3S,4S,5R)-3-(3,4-difluoro-2-methoxyphenyl)-4,5-dimethyl-5-(trifluoromethyl)tetrahydrofuran-2-carboxamido)-N-((3S,4S)-4-methoxypyrrolidin-3-yl)picolinamide] | 10 to 100 nM

The next lines start with the values.

IC50 | Compound
< 10 nM | C[C@H]1[C@@H](c2ccc(F)c(F)c2OCCc2cncn2C)[C@H](C(=O)Nc2ccnc(C(N)=O)c2)O[C@@]1(C)C(F)(F)F [Compound 86, 4-((2R,3S,4S,5R)-3-(3,4-difluoro-2-(2-(1-methyl-1H-imidazol-5-yl)ethoxy)phenyl)-4,5-dimethyl-5-(trifluoromethyl)tetrahydrofuran-2-carboxamido)picolinamide]
< 10 nM | C[C@H]1[C@@H](c2ccc(F)c(F)c2OC[C@H]2CCO2)[C@H](C(=O)Nc2ccnc(C(N)=O)c2)O[C@@]1(C)C(F)(F)F (single isomer, unassigned) [Compound 59, rel-4-((2R*,3S*,4S*,5R*)-3-(3,4-difluoro-2-((oxetan-2-yl)methoxy)phenyl)-4,5-dimethyl-5-(trifluoromethyl)tetrahydrofuran-2-carboxamido)picolinamide]
10 to 100 nM | C[C@H]1[C@@H](c2ccc(F)c(F)c2OCCN(C)C)[C@H](C(=O)Nc2ccnc(C(N)=O)c2)O[C@@]1(C)C(F)(F)F [Compound 44, 4-((2R,3S,4S,5R)-3-(2-(2-(dimethylamino)ethoxy)-3,4-difluorophenyl)-4,5-dimethyl-5-(trifluoromethyl)tetrahydrofuran-2-carboxamido) picolinamide]
< 10 nM | C[C@H]1[C@@H](c2ccc(F)c(F)c2OCCN2CC(OC(F)F)C2)[C@H](C(=O)Nc2ccnc(C(N)=O)c2)O[C@@]1(C)C(F)(F)F [Compound 119, 4-((2R,3S,4S,5R)-3-(2-(2-(3-(difluoromethoxy)azetidin-1-yl)ethoxy)-3,4-difluorophenyl)-4,5-dimethyl-5-(trifluoromethyl)tetrahydrofuran-2-carboxamido)picolinamide]
< 10 nM | C[C@H]1[C@@H](c2ccc(F)c(F)c2OC2CCOCC2)[C@H](C(=O)Nc2ccnc(C(N)=O)c2)O[C@@]1(C)C(F)(F)F [Compound 65, 4-((2R,3S,4S,5R)-3-(3,4-difluoro-2-((tetrahydro-2H-pyran-4-yl)oxy)phenyl)-4,5-dimethyl-5-(trifluoromethyl)tetrahydrofuran-2-carboxamido)picolinamide]
< 10 nM | C[C@@H](Oc1c([C@H]2[C@H](C(=O)Nc3ccnc(C(N)=O)c3)O[C@@](C)(C(F)(F)F)[C@H]2C)ccc(F)c1F)C1COC1 [Compound 157, 4-((2R,3S,4S,5R)-3-(3,4-difluoro-2-((R)-1-(oxetan-3-yl)ethoxy)phenyl)-4,5-dimethyl-5-(trifluoromethyl)tetrahydrofuran-2-carboxamido)picolinamide]
< 10 nM | COCCOc1c([C@H]2[C@H](C(=O)Nc3ccnc(C(N)=O)n3)O[C@@](C)(C(F)(F)F)[C@H]2C)ccc(F)c1C (single isomer, unassigned) [Compound 3]
< 10 nM | C[C@H]1[C@@H](c2ccc(F)c(F)c2OCCN2CCC3(COC3)C2)[C@H](C(=O)Nc2ccnc(C(N)=O)c2)O[C@@]1(C)C(F)(F)F [Compound 127, 4-((2R,3S,4S,5R)-3-(2-(2-(2-oxa-6-azaspiro[3.4]octan-6-yl)ethoxy)-3,4-difluorophenyl)-4,5-dimethyl-5-(trifluoromethyl)tetrahydrofuran-2-carboxamido)picolinamide]
< 10 nM | COCCOc1c([C@@H]2C[C@](C)(C(F)(F)F)O[C@H]2C(=O)Nc2ccnc(C(N)=O)c2)ccc(F)c1F (relative stereo) [Compound 34, rel-4-((2R,3S,5R)-3-(3,4-difluoro-2-(2-methoxyethoxy)phenyl)-5-methyl-5-(trifluoromethyl)tetrahydrofuran-2-carboxamido)picolinamide]
< 10 nM | C[C@@H]1CN(CCOc2c([C@H]3[C@H](C(=O)Nc4ccnc(C(N)=O)c4)O[C@@](C)(C(F)(F)F)[C@H]3C)ccc(F)c2F)CCO1 [Compound 109, 4-((2R,3S,4S,5R)-3-(3,4-difluoro-2-(2-((R)-2-methylmorpholino)ethoxy)phenyl)-4,5-dimethyl-5-(trifluoromethyl)tetrahydrofuran-2-carboxamido)picolinamide]

Reference: patent US20250213555A1, “SUBSTITUTED TETRAHYDROFURAN ANALOGS AS MODULATORS OF SODIUM CHANNELS” (VERTEX PHARMACEUTICALS INCORPORATED, priority 2021, published 2025)
